Results taken from ChEMBL document CHEMBL1123596, “5-fluoro- and 8-fluorotrimetoquinol: selective beta 2-adrenoceptor agonists” (J Med Chem, 1987).
Structures can show the parent of a compound that is named as a salt.

Legend:
[1] = Acid dissociation constant was determined; format: ADME
[2] = biological target: Beta-1 adrenergic receptor (Cavia porcellus) (UniProt B0FL73)
[3] = biological target: Beta-1 adrenergic receptor (Cavia porcellus) (UniProt B0FL73); remark: listed apart in the source
[4] = biological target: Beta-2 adrenergic receptor (Cavia porcellus) (UniProt Q8K4Z4); conditions: Trachea
Sequence of Beta-2 adrenergic receptor (Cavia porcellus) (Q8K4Z4 whole entry, looked up): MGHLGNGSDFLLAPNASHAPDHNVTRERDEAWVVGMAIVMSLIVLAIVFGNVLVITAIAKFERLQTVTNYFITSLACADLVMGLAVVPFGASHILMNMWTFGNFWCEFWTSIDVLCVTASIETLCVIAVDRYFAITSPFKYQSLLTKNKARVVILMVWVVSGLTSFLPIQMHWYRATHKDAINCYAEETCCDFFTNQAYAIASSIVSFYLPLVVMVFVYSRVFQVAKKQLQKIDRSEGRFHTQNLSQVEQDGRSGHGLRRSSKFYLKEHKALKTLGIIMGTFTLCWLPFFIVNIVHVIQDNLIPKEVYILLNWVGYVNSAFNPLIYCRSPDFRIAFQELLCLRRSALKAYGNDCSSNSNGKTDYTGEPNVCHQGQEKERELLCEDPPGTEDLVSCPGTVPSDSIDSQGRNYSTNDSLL

Sequence of Beta-1 adrenergic receptor (Cavia porcellus) (B0FL73 1-467): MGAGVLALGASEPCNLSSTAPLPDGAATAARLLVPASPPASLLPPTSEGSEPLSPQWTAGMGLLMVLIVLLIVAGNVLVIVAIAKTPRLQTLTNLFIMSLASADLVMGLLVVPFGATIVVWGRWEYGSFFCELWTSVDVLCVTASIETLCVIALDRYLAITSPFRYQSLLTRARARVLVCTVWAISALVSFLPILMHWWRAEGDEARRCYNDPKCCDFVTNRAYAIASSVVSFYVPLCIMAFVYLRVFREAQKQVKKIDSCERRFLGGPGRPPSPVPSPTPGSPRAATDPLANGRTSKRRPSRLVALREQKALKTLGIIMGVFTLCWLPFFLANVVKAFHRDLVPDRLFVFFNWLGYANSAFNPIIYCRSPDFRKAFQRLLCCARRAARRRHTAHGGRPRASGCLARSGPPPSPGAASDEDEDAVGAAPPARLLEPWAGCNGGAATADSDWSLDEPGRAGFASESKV

Structure (SMILES) | pKa [1] | pD2 [2] | IAR [3] | IAR [4]
COc1cc(CC2NCCc3cc(O)c(O)cc32)cc(OC)c1OC (stereo not drawn) [TRETOQUINOL HYDROCHLORIDE] | 8.77 | 7.52 | 1 | 0.95
COc1cc(CC2NCCc3cc(O)c(O)c(F)c32)cc(OC)c1OC (stereo not drawn) | 7.86 |  |  | 
COc1cc(CC2NCCc3c2cc(O)c(O)c3F)cc(OC)c1OC (stereo not drawn) | 8.11 |  | 0.96 | 0.95
